Experimental data from paper PMC11859031, “Assessment of the In Vitro Biological Activities of Schiff Base-Synthesized Copper Oxide Nanoparticles as an Anti-Diabetic, Anti-Alzheimer, and Anti-Cancer Agent” (Pharmaceutics, 2025).

What was measured:
[1] = target: T1, α-amylase (Sus scrofa, UniProt P00690); assay: α-amylase inhibition (anti-diabetic); format: biochemical; conditions: at 100 µg/mL; mean ± SE, n = 3
T1 sequence (P00690 16-511): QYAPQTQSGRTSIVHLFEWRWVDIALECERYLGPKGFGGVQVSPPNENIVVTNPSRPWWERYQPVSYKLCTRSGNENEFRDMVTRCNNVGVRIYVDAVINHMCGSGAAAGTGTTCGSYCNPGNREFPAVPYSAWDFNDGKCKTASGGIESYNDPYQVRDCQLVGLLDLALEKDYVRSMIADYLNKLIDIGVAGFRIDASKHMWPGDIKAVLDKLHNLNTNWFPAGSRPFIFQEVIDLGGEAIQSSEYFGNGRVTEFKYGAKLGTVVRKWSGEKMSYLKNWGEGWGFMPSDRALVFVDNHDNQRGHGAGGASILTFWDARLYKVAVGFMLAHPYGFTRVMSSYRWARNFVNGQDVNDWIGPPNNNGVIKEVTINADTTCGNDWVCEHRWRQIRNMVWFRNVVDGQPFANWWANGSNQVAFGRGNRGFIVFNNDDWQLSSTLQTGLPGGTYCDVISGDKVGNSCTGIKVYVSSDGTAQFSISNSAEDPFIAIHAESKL
Protocol: 3.3. Anti-diabetic activity […]
tetrahydrate in 8.0 mL of 2 M NaOH and 20 mL of 96 mM of DNSA solution). The […]
(§1) The absorbance was measured at 540 nm using a UV-Visible spectrophotometer. The IC50 of each tested sample was calculated by plotting a curve using a series of sample concentrations against the percent of α-amylase inhibition.
(§2) The inhibition percentage (%) of the α-glucosidase enzyme was determined using the […]
(§3) standard drug. Five μL of the α-glucosidase solution (10 units mL−1, 0.1moll−1 potassium phosphate buffer, pH 6.8) was pre -mixed with 10 μL of the sample solution at different concentrations (in 10% DMSO) i n 620 μL of 0.1 moll−1 potassium […]
(§4) phosphate buffer (pH 6.8). […]
(§5) phenyl glucopyranoside (pNPG, 10 mmoll−1) as a substrate was added to the mixture […]
(§6) minutes, followed by the addition of 650 μL of 1 moll−1 Na2CO3 solution to terminate the reaction. The amount of released product (p-nitro phenol) was measured at 410 […]
activity. […] The IC50 of each tested sample was calculated by plotting a curve using a series of sample concentrations against the percent of α-glucosidase inhibition. […]
(§7) In this study, we assessed the inhibition percentage of the acetylcholinesterase (AChE) enzyme using Ellman's method with donepezil as the standard drug. […] After incubation, 5 µL of AChE at a concentration of 0.3 U/mL was added to start the reaction, and the absorbance […]

[2] = target: α-glucosidase (Saccharomyces cerevisiae, UniProt P53341); format: biochemical
Protocol: as §1, §2, §3, §4, §5, §6
activity. The inhibition assay was performed in triplicate for all tests. The IC50 of each tested sample was calculated by plotting a curve using a series of sample concentrations against the percent of α-glucosidase inhibition.
3.4. Anti-Alzheimer's activity
as §7

α-glucosidase, sequence (P53341 whole entry): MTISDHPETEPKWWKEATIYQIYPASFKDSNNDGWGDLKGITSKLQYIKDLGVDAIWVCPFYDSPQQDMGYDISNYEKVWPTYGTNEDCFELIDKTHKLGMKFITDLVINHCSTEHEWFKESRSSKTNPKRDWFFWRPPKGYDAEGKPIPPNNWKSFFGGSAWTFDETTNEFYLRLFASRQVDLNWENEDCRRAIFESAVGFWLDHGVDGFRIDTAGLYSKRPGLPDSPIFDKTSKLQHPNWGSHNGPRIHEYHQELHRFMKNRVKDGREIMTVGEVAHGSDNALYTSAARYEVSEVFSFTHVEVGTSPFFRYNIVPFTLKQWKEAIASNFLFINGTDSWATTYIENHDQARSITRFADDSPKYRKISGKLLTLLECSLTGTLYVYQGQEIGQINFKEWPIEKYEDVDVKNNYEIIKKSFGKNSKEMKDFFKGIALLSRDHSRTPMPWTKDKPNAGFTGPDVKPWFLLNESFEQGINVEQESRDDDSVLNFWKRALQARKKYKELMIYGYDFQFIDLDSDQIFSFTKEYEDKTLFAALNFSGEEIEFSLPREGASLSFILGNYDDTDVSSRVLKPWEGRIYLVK

Q: `C[C@H]1O[C@H](O[C@H]2[C@H](O)[C@@H](O)[C@@H](O[C@H]3[C@H](O)[C@@H](O)C(O)O[C@@H]3CO)O[C@@H]2CO)[C@H](O)[C@@H](O)[C@@H]1N[C@H]1C=C(CO)[C@@H](O)[C@H](O)[C@H]1O` (some centres unmarked) [Acarbose] was tested. Which “α-Amylase Inhib. (%)” value [1] did it give?
A: The value was 54.96 ± 0.10 Acarbose %.

Q: What about the “α-Glucosidase Inhib. (%)” value [2] of the same compound?
A: Its value is 44.71 ± 0.10 Acarbose %.
